Test results from ChEMBL document CHEMBL5584353, “Design, Synthesis, and Biological Evaluation of Potent EZH2/LSD1 Dual Inhibitors for Prostate Cancer” (J Med Chem, 2024).
Active and inactive are the calls of the source. No cut-off for these calls is given here.

Legend:
[1] = Toxicity in BALB/c mouse xenografted with human 22Rv1 cells assessed as spleen morphological change at 80 mg/kg,ip administrated daily for 31 days; format: organism-based, CWR22R; details: in vivo, 744 h, time 31 day
[2] = biological target: T1, Lysine-specific histone demethylase 1A (Homo sapiens, UniProt O60341); experiment: Inhibition of LSD1 in human 22Rv1 cells assessed as upregulation of H3K4me2 expression at 1 to 5 uM incubated for 5 days by Western blotting analysis; format: cell-based; details: dose 1-5 µM, time 5.0 day
[3] = Metabolic stability in Sprague-Dawley rat hepatocyte assessed as compound remaining at 20 uM incubated for 180 mins by HPLC-MS/MS analysis; format: ADME, cell-based; details: hepatocytes, read-out: Stability
[4] = test system: SUD4; experiment: Antiproliferative activity against human SU-DHL-4 cells assessed as inhibition of cell growth incubated for 6 to 7 days by MTS assay; format: functional, cell-based; details: time 6-7 day
[5] = biological target: T1, Lysine-specific histone demethylase 1A; experiment: Inhibition of LSD1 in human PC-3 cells assessed as upregulation of H3K9me2 expression at 1 to 5 uM incubated for 5 days by Western blotting analysis; format: cell-based; details: dose 1-5 µM, time 5.0 day
[6] = biological target: T1, Lysine-specific histone demethylase 1A; experiment: Inhibition of LSD1 in human LNCaP cells assessed as upregulation of H3K4me2 expression at 1 to 5 uM incubated for 5 days by Western blotting analysis; format: cell-based; details: dose 1-5 µM, time 5.0 day
[7] = Cmax in BALB/c mouse at 50 mg/kg,po measured upto 24 hrs by HPLC-MS/MS analysis; format: ADME, organism-based; details: in vivo
[8] = Half life in BALB/c mouse at 50 mg/kg,ip measured upto 24 hrs by HPLC-MS/MS analysis; format: ADME, organism-based; details: in vivo
[9] = biological target: T1, Lysine-specific histone demethylase 1A; experiment: Binding affinity to recombinant human LSD1 assessed as increase in thermal stability at 5 uM at 38 to 58 degreeC incubated for 48 hrs by cellular thermal shift assay
[10] = test system: PC-9; experiment: Antiproliferative activity against human PC-9 cells assessed as inhibition of cell growth incubated for 6 to 7 days by MTS assay; format: functional, cell-based; details: time 6-7 day
[11] = test system: NCI-H292; experiment: Antiproliferative activity against human NCI-H292 cells assessed as inhibition of cell growth incubated for 6 to 7 days by MTS assay; format: functional, cell-based; details: time 6-7 day
[12] = test system: CWR22R; experiment: Induction of cell cycle arrest in human 22Rv1 cells assessed as accumulation of cells at G0/G1 phase incubated for 72 hrs by propidium iodide/RNase staining based flow cytometric analysis; format: functional
[13] = AUC (0 to infinity) in BALB/c mouse at 50 mg/kg,ip measured upto 24 hrs by HPLC-MS/MS analysis; format: ADME, organism-based; details: in vivo
[14] = biological target: T1, Lysine-specific histone demethylase 1A; experiment: Inhibition of LSD1 in human LNCaP cells assessed as downregulation of AR expression incubated for 48 hrs by Western blotting analysis; format: cell-based
[15] = test system: PC-3; experiment: Induction of apoptosis in human PC-3 cells at 1 to 10 uM incubated for 5 days by Annexin V-FITC/PI staining based flow cytometric analysis; format: functional, cell-based; details: dose 1-10 µM, time 5.0 day
[16] = test system: BT-549; experiment: Antiproliferative activity against human BT-549 cells assessed as inhibition of cell growth incubated for 6 to 7 days by MTS assay; format: functional, cell-based; details: time 6-7 day
[17] = Metabolic stability in Sprague-Dawley rat hepatocyte assessed as compound remaining at 20 uM incubated for 30 mins by HPLC-MS/MS analysis; format: ADME, cell-based; details: hepatocytes, read-out: Stability
[18] = test system: CWR22R; experiment: Antitumor activity against human 22Rv1 cells xenografted in BALB/c mouse assessed as tumor growth inhibition at 80 mg/kg,ip administrated daily for 31 days relative to control; format: functional; details: 22Rv1, 744 h, time 31 day, read-out: TGI
[19] = Tmax in BALB/c mouse at 50 mg/kg,po measured upto 24 hrs by HPLC-MS/MS analysis; format: ADME, organism-based; details: in vivo
[20] = biological target: T1, Lysine-specific histone demethylase 1A; experiment: Inhibition of recombinant human LSD1 using Histone H3 as fluorometric substrate incubated for 30 mins by HRP based plate reader assay
[21] = test system: CWR22R; experiment: Antitumor activity against human 22Rv1 cells xenografted in BALB/c mouse assessed as reduction in Ki67 expression at 80 mg/kg,ip administrated daily for 31 days by immunofluorescence analysis; format: functional, organism-based; details: time 31.0 day

CCN(c1cc(-c2ccc([C@@H]3C[C@H]3N(CC3CCOCC3)C(=O)OC(C)(C)C)cc2)cc(C(=O)NCc2c(C)cc(C)[nH]c2=O)c1C)C1CCOCC1 (racemic)
Activity [1]: Non-Toxic
inhibition [2]: Active
remaining at 3 h, 20 µM [3]: 70%
Activity [4]: Active
inhibition [5]: Active
inhibition [6]: Active
Cmax [7]: 7410 ng/mL
half-life [8]: 3.5 h
Activity [9]: Active
Activity [10]: Active
Activity [11]: Active
Activity [12]: Dose-Dependent Effect
AUC(0-inf) [13]: 112 µg·h/mL
inhibition [14]: Dose-Dependent Effect
Activity [15]: Active
Activity [16]: Active
remaining at 0.5 h, 20 µM [17]: 93%
inhibition in vivo at 80 mg/kg [18]: 52.2%
Tmax [19]: 1 h
IC50 [20]: > 3 µM
Activity [21]: Active
